{"source": "patent US20060128645A1", "about": "“Inhibition of proliferation and infiltration of brain tumor cells caused by expression of ampa-type glutamate receptor subunit” (priority 2002, published 2006)", "key": {"[1]": {"test_system": "Ca^2+-permeable AMPARs in CGNH-89 cells", "assay": "AMPA-induced [Ca2+]i changes (fura-2 AM) in CGNH-89 cells after adenoviral gene transfer", "type": "cell-based, human", "details": "200 μM AMPA + 100 μM CTZ", "experimental": "In FIGS. 3p˜x, the present inventors confirmed changes in Ca^2+ permeability induced by adenoviral-mediated introduction of GluR2 (R) or GluR2 (Q) in CGNH-89 cells. […] The same treatment had no effect on [Ca^2+]i in cells expressing GluR2 (FIGS. 3s, t and u) in 4 culture dishes, whereas it caused a marked increase in [Ca^2+]i from 77±21 to 1185±240 nM (n=40) in cells expressing GluR2 (Q) in 2 culture dishes (FIGS. 3v, w and x).\n(2) AxCANCre and AxCAGFP: recombinant adenoviruses for expression of Cre recombinase and EGFP (Clontech), respectively. Cells were infected at a multiplicity of infection (MOI) of 5 with each of the recombinant adenoviruses 2˜5 days before experiments.\n(§1) Cells were loaded with fura 2-AM (Dojin) at room temperature for 40 min. Fluorescence images were obtained at an excitation wavelength of 340 and 380 nm using the Argus/HiSCA system (Hamamatsu Photonics). The 340/380 nm fluorescence ratio was converted to [Ca^2+]i as described previously (Cell, 88, 49-55, 1997)."}, "[2]": {"test_system": "CGNH-89 cells", "assay": "ATP-induced [Ca2+]i increase in CGNH-89 cells", "type": "cell-based, human", "details": "25 μM ATP; control cells, n=50", "experimental": "The present inventors examined whether CGNH-89 cells expressing GluR2 (R) could increase [Ca^2+]i to a similar extent as control cells in response to ATP, which is known to mediate Ca^2+ signaling in glial cells (J. Neurosci., 18, 8794-8804, 1998).\nas §1"}, "[3]": {"molecular_target": "T1, Ca^2+-permeable AMPARs in glioblastoma cells in primary culture (Homo sapiens, UniProt P42261)", "T1 construct": "To examine functional expression of Ca^2+-permeable AMPARs in glioblastoma cells in primary culture; endogenous in cells; host or cells: primary (explant) cultures of glioblastoma multiforme surgical samples", "T1 sequence (P42261 19-906)": "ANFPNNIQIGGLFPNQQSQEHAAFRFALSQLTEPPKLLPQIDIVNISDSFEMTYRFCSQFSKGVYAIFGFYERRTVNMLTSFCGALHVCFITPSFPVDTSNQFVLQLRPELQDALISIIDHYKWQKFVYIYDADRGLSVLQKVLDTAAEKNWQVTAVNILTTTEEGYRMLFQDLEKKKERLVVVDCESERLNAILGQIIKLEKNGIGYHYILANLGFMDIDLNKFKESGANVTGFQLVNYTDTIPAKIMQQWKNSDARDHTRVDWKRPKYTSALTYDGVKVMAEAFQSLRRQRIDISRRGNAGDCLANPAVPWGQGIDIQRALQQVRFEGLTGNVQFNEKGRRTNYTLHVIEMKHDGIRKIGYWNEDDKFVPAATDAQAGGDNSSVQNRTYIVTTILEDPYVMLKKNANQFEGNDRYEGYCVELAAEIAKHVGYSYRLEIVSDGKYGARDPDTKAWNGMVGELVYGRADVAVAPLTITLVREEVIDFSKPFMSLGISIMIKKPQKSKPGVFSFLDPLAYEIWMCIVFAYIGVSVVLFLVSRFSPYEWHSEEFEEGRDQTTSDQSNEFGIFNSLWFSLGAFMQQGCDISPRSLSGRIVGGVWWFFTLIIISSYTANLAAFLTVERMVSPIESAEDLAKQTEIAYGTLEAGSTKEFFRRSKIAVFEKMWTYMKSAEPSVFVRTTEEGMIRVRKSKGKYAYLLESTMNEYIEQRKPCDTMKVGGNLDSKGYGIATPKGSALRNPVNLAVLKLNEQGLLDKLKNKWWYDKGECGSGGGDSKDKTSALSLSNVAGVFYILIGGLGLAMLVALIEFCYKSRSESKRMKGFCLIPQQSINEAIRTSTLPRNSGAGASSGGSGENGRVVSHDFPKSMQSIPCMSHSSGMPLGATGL", "assay": "AMPA-induced [Ca2+]i changes (fura-2 AM) in primary cultured glioblastoma cells", "type": "cell-based", "experimental": "as §1"}, "[4]": {"test_system": "CGNH-89 cells", "assay": "Cell morphology of CGNH-89 glioblastoma cells", "type": "cell-based, human"}, "[5]": {"test_system": "CGNH-89 cells", "assay": "Ki-67 staining index (proliferation activity) in CGNH-89 cells", "type": "cell-based, human", "details": "10 μM YM872, 2 days, n=4", "experimental": "There were no significant changes in these 2 indices between cells expressing GluR2 (Q) and overexpressing GluR1.\nFor TUNEL and cell proliferation assays, cells were plated at a density of 2×10^4/well in Lab-Tek 4-well glass slides filled with the standard culture medium. At 6 hr. after plating, the medium was replaced with glutamate-free medium and cells were infected with the adenoviruses. […] TUNEL assay was performed with an In Situ Cell Death Detection kit (MBL). Cell proliferation assay was performed with anti-Ki-67 monoclonal antibody (Dako) staining indices. Migration assay was performed in a transwell chamber (8 μm pore size) (Corning Corstar Corp.)."}, "[6]": {"test_system": "CGNH-NM, MRCH-92 and U87 MG", "assay": "Other 3 cell lines expressing Ca2+-permeable AMPARs: morphology, apoptotic index, Ki-67 index, migration", "type": "cell-based, human"}, "[7]": {"test_system": "CGNH-89 cells", "assay": "TUNEL apoptotic index in CGNH-89 cells", "type": "cell-based, human", "details": "10 μM YM872, 2 days, n=4", "source_text": "The present inventors next estimated the apoptotic index in CGNH-89 cells expressing GluR2 (R) using the terminal deoxynucleotide transferase (TdT)-mediated dUTP nick end labeling (TUNEL) method (Science, 267, 1445-1449, 1995), and compared this value with that in cells infected with only AxCALNLGluR2 (control). The apoptotic index was defined as the number of TUNEL-positive cells divided by the total number of propidium iodine (PI)-positive nuclei per microscopic field. To obtain the mean value in each culture dish, 10 to 15 randomly chosen fields were sampled.\nFor TUNEL and cell proliferation assays, cells were plated at a density of 2×10^4/well in Lab-Tek 4-well glass slides filled with the standard culture medium. At 6 hr. after plating, the medium was replaced with glutamate-free medium and cells were infected with the adenoviruses. At 48 hr. after plating, glutamate (100 μM) was added to the medium and cells were fixed at 5 days postinfection. TUNEL assay was performed with an In Situ Cell Death Detection kit (MBL). Cell proliferation assay was performed with anti-Ki-67 monoclonal antibody (Dako) staining indices. Migration assay was performed in a transwell chamber (8 μm pore size) (Corning Corstar Corp.)."}, "[8]": {"test_system": "tumor produced by grafting CGNH-89 cells into the subcutaneous tissue", "assay": "Subcutaneous CGNH-89 tumor growth in nude mice", "type": "in vivo", "source_text": "To further estimate quantitatively whether manipulation of Ca^2+-permeable AMPARs alters tumor growth in vivo, the present inventors examined effects of GluR2 and GluR2 (Q) expression and/or application of the AMPAR antagonist YM872 on the growth of tumor produced by grafting CGNH-89 cells into the subcutaneous tissue of nude mice (FIG. 6)-(FIGS. 6a and b).\nProliferation of tumor cells expressing GluR2 (Q) was inhibited by application of YM872 (FIGS. 6g, h and i).\nIn addition, the effect of adenoviral-mediated expression of GluR2 (R) and GluR2 (Q) on tumor growth was evaluated quantitatively in subcutaneous tumors with or without application of YM872, an antagonist for AMPA-type glutamate receptors. Cell suspensions (1×10^7/100 μl) were injected subcutaneously in the flank of nude mice 5˜6 weeks old (body weight, 18˜20 g). Adenoviruses ([…], diluted in a total of 100 μl of PBS) were administered intratumorally once 5 days after tumor inoculation with a 27-gauge needle. AxCALNLGluR2 without AxCANCre was administered for control.\nYM872, a kind gift from Yamanouchi Pharmaceutical Company, was dissolved in PBS. […] In this series of experiments, 100 mg/kg YM872 was used. PBS (100 μl) was administered intraperitoneally for control. Tumor volume was calculated according to the formula (length×width^2 )/2. At the end of each experiment, tumor tissues were subjected to histological analysis."}, "[9]": {"test_system": "tumor cells", "assay": "Tumor cells cultured in glutamate-free medium, glutamate add-back", "type": "cell-based, human", "details": "addition of 100 ˜M glutamate after 4˜5 days in glutamate-free medium with 10% dialyzed FCS", "experimental": "The endogenous agonist for AMPARs is glutamate. The culture medium in this experiment was supplemented with fetal calf serum (FCS) and contained up to 100 μM glutamate. The presence of glutamate was essential for maintenance of fusiform morphology as well as proliferation of the tumor cells. When the cells were cultured in glutamate-free medium supplemented with 10% dialyzed FCS for 4˜5 days, they became polygonal in shape and the number of apoptotic cells increased. These changes were restored by addition of 100 ˜M glutamate. An obvious question is whether a sufficient concentration of glutamate to activate Ca^2+-permeable AMPARs is actually supplied to proliferating and migrating tumor cells in the brain. It has been shown that implanted glioma cells continue to secrete glutamate, resulting in a detectable elevation of extracellular glutamate, and that gliomas with high glutamate release have a distinct growth advantage (Nature Med., 7, 1010-1015, 2001)."}, "[10]": {"details": "other 3 cell lines (CGNH-NM, MRCH-92, U87 MG)"}, "[11]": {"details": "22 days after tumor inoculation"}}}
{"smiles": "Cc1onc(O)c1CC(N)C(=O)O", "note": "(stereo not drawn) [AMPA, α-amino-3-hydroxy-5-methyl-4-isoxazole propionic acid]", "values": [{"measurement": "control cells in which [Ca^2+]i increased", "setting": "[1]; 10 culture dishes", "result": "52±14", "unit": "%"}, {"measurement": "[Ca^2+]i during application of AMPA together with CTZ", "setting": "[1]; control CGNH-89 cells, n=350", "result": "275 ± 50", "unit": "nM"}]}
{"smiles": "Nc1ncnc2c1ncn2[C@@H]1O[C@H](COP(=O)(O)OP(=O)(O)OP(=O)(O)O)[C@@H](O)[C@H]1O", "note": "[ATP]", "values": [{"measurement": "[Ca^2+]i after application of ATP", "setting": "[2]", "result": "1574 ± 161", "unit": "nM"}]}
{"smiles": "[K+]", "note": "[K^+]", "values": [{"measurement": "effect on [Ca^2+]i", "setting": "[3]; 100 mM K^+", "result": "did not increase"}]}
{"smiles": "NS(=O)(=O)c1cccc2c1c([N+](=O)[O-])cc1nc(O)c(O)nc12", "note": "[NBQX, 2,3-dihydroxy-6-nitro-7-sulfamoyl-benzo(F)-quinoxaline]", "values": [{"measurement": "change in cell morphology", "setting": "[4]; 20 μM NBQX for 2 days", "result": "retraction of cytoplasmic processes, enlarged and flattened somata"}]}
{"smiles": "O.O=C(O)Cn1c(=O)c(=O)[nH]c2cc([N+](=O)[O-])c(-n3ccnc3)cc21", "note": "[YM872, [2,3-dioxo-7-(1H-imidazol-1-yl)-6-nitro-1,2,3,4-tetrahydroquinoxalin-1-yl]acetic acid monohydrate]", "values": [{"measurement": "Ki-67 staining index", "setting": "[5]", "result": "< 0.1", "unit": "%"}, {"measurement": "change in cell morphology", "setting": "[4]; 10 μM YM872 for 2 days", "result": "retraction of cytoplasmic processes, enlarged and flattened somata"}, {"measurement": "Ki-67 staining index", "setting": "[6]; [10]", "result": "decreased"}, {"measurement": "apoptotic index", "setting": "[6]; [10]", "result": "increased"}, {"measurement": "cell migration", "setting": "[6]; other 3 cell lines expressing Ca^2+-permeable AMPARs", "result": "inhibited the cell migration"}, {"measurement": "apoptotic index", "setting": "[7]", "result": "18.0±2.5", "unit": "%"}, {"measurement": "effect on AMPA-induced increase in [Ca^2+]i", "setting": "[3]; 10 μM YM872", "result": "selectively abolished"}, {"measurement": "apoptotic cells in tumor tissues (histology)", "setting": "[8]; [11]", "result": "a large number of apoptotic cells"}, {"measurement": "mitotic cells in tumor tissues (histology)", "setting": "[8]; [11]", "result": "scarcely detected"}, {"measurement": "further effect on tumor expressing GulR2", "setting": "[8]; YM872 intraperitoneal, 100 mg/kg", "result": "no further inhibitory effects"}, {"measurement": "size of tumor", "setting": "[8]; YM872 intraperitoneal, 100 mg/kg daily, vs PBS, n=12", "result": "significantly reduced"}, {"measurement": "growth of tumor expressing GluR2 (Q)", "setting": "[8]; YM872 intraperitoneal, 100 mg/kg, n=12", "result": "inhibited"}, {"measurement": "proliferation of tumor cells expressing GluR2 (Q) (histology)", "setting": "[8]; application of YM872", "result": "inhibited"}, {"measurement": "inhibition of tumor growth, dose dependence", "setting": "[8]; daily intraperitoneal 10, 50 and 100 mg/kg for 2 weeks", "result": "Dose-dependent inhibition"}, {"measurement": "tumor proliferation in cells expressing GluR2 (histology)", "setting": "[8]; treatment with YM872", "result": "no further inhibition"}]}
{"smiles": "N[C@@H](CCC(=O)O)C(=O)O", "note": "[glutamate]", "values": [{"measurement": "polygonal shape and increased apoptotic cells caused by glutamate-free medium", "setting": "[9]", "result": "restored"}]}
